According to patent US20260356839A1, “DIRECT SYNTHESIS OF N-(3-SUBSTITUTED-CHROMAN-4-YL)-7H- PYRROLO[2,3-D]PYRIMIDIN-4-AMINES AND DERIVATIVES THEREOF” (MITOKININ, INC., priority 2022, published 2026):

Experiments:
Format in all cases: cell-based
[1] = tested on: HeLa cells expressing mt-Keima and YFP-Parkin (HeLa MKYP); experiment: Human mt-Keima Mitophagy Assay; settings: 16 hrs compound, then 1 μM FCCP/oligomycin for 6 hours, read-out: Mitophagy induction EC50
Method: (§1) HeLa cells expressing mt-Keima and YFP-Parkin (HeLa MKYP) were plated at 10,000 cells/well in 96 well plates along with Mitokinin compounds at various concentrations. Following 16 hrs of incubation, cells were treated with 1 μM FCCP/oligomycin for 6 hours, then analyzed via FACS for the presence of mitochondria in lysosomes (as determined by an emissions spectrum shift from the pH-sensitive mt-Keima tag). Additionally, cells treated with 25 μM Mitokinin compound but not treated with FCCP/oligomycin were analyzed for cytotoxicity.
The above compound was prepared using the synthetic methods detailed herein, and evaluated for PINK1 activity. Additional exemplary PINK1 modulators for which the synthetic methods described herein can be used are described in WO 2021/168446

[2] = In Vitro Mitotoxicity (glucose/galactose) Assay; settings: human, skov3 cells
Method: Briefly, SKOV3 cells (ATCC HTB-77) were plated in DMEM (Corning 10-013-CV) medium containing 25 mM glucose or DMEM with no glucose (Gibco 11966-025) supplemented with 10 mM galactose at 9,000 cells/well in 96 well plates (Corning costar 3610). 24 hrs later, compounds, in DMSO, were added at various concentrations to a final 0.1% DMSO for all wells. Following 20 hours of incubation with compound, all wells had their growth medium replaced with DMEM containing 25 mM of glucose followed by the addition of Promega CellTiter-Glo® reagent as per manufacturer's instructions. After a 15 minute incubation cellular ATP levels were read out using a Promega GloMax® DiscoverMicroplate Reader.
The ratio of relative CellTiter-Glo values from cells grown in galactose to cells grown in glucose was determined (gal/glc ratio). The gal/glc ratio vs concentration is then graphed, and non-linear regression is used to find the highest concentration of MTK compound at which gal/glc>0.80 (the “highest mito-safe dose”, or IC20). The Mito-Safety Index in Table 2 is equal to the highest mito-safe dose divided by the mt-Keima EC50 dose.

[3] = Cytotoxicity in the mt-Keima assay cells (FACS, DAPI); settings: human, hela mkyp cells
Method: as §1

EC50 [1]: 0.13 µM
Compound: C[C@@H]1CN([C@H]2COc3cc(F)ccc3[C@@H]2Nc2ncnc3[nH]c(C(F)(F)F)cc23)CCO1
selectivity ratio ([2]; highest mito-safe dose divided by the mt-Keima EC50 dose, read-out: Mito-Safety Index (highest safe dose/EC50)): 135 | IC20 at 20 h ([2]; mitotox or cytotox, highest concentration at which gal/glc > 0.80 (IC20), 20 hours, read-out: Highest safe dose (mitotox or cytotox)): 17.3 µM | MNTC ([3]; no FO, safe means DAPI + < 20%, read-out: Highest safe dose (cytotoxicity; no FO; safe means DAPI+ < 20%)): 21.9 µM | cytotoxicity ([3]; with 1 μM FCCP/oligomycin (FO), read-out: Max % death with 1 μM FO): 29.6%
